“Also recorded” adds a separate entry of the source.

This note sets out measurements from US9387221B2, “SDF-1 binding nucleic acids and the use thereof in cancer treatment” (NOXXON Pharma AG, priority 2010, dated 2016).

One data set concerns biotinylated human D-SDF-1. In words: Competitive pull-down binding assay. As to conditions: aptamer level; reference 192-A10-001. The method, then:
In order to compare different D-SDF-1 binding aptamers, a competitive ranking assay was performed. For this purpose the most affine aptamer available was radioactively labeled (see above) and served as reference. […] An excess of de- and renatured non-labeled D-RNA aptamer variants was added to different concentrations (e.g. 2, 10, and 50 nM) with the labeled reference aptamer to parallel binding reactions. The aptamers to be tested competed with the reference aptamer for target binding, thus decreasing the binding signal in dependence of their binding characteristics.
With “GCUGUGAAAGUAACAUGUCAAUGAAAGGUAACCACUGC (aptamer; Made as D-RNA aptamer and L-RNA Spiegelmer, tested form not given here, further chemistry not given here) [192-G11]”, the “binding affinity in competitive pull-down binding assay vs. 192-A10-001” value is reported as “Weaker binding affinity”. Take “GUGCUGCCGGGGUUAGGGCUAA-AGUCGGCCGACAGCAC (GUGCUGCCGGGGUUAGGGCUAAAGUCGGCCGACAGCAC; chemistry not given here) [197-D1]”: the “binding affinity in competitive pull-down binding assay vs. 192-A10-001” value is given as “Much weaker binding affinity”. For “CGUGCGCUUGAGAUAGGGGUUAGGGCUUAAAGUCGGCUGAUUCUCACG (Made as D-RNA aptamer and L-RNA Spiegelmer, tested form not given here, further chemistry not given here) [190-A3-001]”, the “binding affinity in competitive pull-down binding assay vs. 192-A10-001” value was “weaker binding affinities”. Regarding “AGCGUGGUGUGAUCUAGAUGUAAUGGCUGAUCCUAGUCAGGUGCGCU (chemistry not fully specified) [193-F2-001]”, the “binding affinity in competitive pull-down binding assay vs. 192-A10-001” value is reported as “superior binding”. In the case of “GCUGCGAAAGCGACAUGUCAAUGAAAGGUAGCCGCAGC (aptamer; Made as D-RNA aptamer and L-RNA Spiegelmer, tested form not given here, further chemistry not given here) [192-D10]”, the “binding affinity in competitive pull-down binding assay vs. 192-A10-001” value is recorded as “much weaker binding affinity”. As for “GUGUUCCCGGGGUUAGGGCUUGAAGUCGGCCGGCAGCAC (aptamer; chemistry not fully specified) [197-B1]”, the “binding affinity in competitive pull-down binding assay vs. 192-A10-001” value is recorded as “Much weaker binding affinity”. Turning to “GCUGUGAAAGUAACACGUCAAUGAAAGGUAACCGCAGC (aptamer; Made as D-RNA aptamer and L-RNA Spiegelmer, tested form not given here, further chemistry not given here) [192-F10]”, the “binding affinity in competitive pull-down binding assay vs. 192-A10-001” value is “Weaker binding affinity; also recorded: reduced binding affinity”. For “AGCGUGGUGUGAUCUAGAUGUAGUGGCUGAUCCUAGUCAGGUACGCU (chemistry not fully specified) [193-C2-001]”, the “binding affinity in competitive pull-down binding assay vs. 192-A10-001” value is “superior binding”. “GUGCUGUGGGGGUCAGGGCUAGAAGUCGGCCUGCAGCAC (chemistry not given here) [197-D2]”: the “binding affinity in competitive pull-down binding assay vs. 192-A10-001” value was “Much weaker binding affinity”. Same read-out and setting: next, “GCUGUGAAAGUAACAUGUCAAUGAAAGGUAACCACAGC (aptamer; Made as D-RNA aptamer and L-RNA Spiegelmer, tested form not given here, further chemistry not given here) [192-G10]”: “Weaker binding affinity”.

Still in this data set, the particulars now being: compared with 190-A3-001.
Consider “GGGGUUAGGGCUUAAAGUCGGCUGAUUCU (Made as D-RNA aptamer and L-RNA Spiegelmer, tested form not given here, further chemistry not given here) [190-A3-007]”, for which the “binding affinity of derivatives of 190-A3-001” value is recorded as “very strong reduction of binding affinity”.

Staying with this data set, now noted: reference 191-D5-007.
As for “CGCCGGGGUUAGGGCUAGAAGUCGGCCGGCG (chemistry not fully specified) [197-B2-006-31b]”, the “binding affinity in competitive pull-down binding assay vs. 191-D5-007” value was “the same as shown for 191-D5-007 and 197-B2-006”. Take “CCGCGGUUAGGGCUAGAAGUCGGGCGG (chemistry not given here) [191-D5-017]”: the “binding affinity in competitive pull-down binding assay vs. 191-D5-007” value is reported as “reduced binding affinity”. Regarding “GGCCGGGGUUAGGGCUAGAAGUCGGCCGGCC (chemistry not fully specified) [197-B2-006-31a]”, the “binding affinity in competitive pull-down binding assay vs. 191-D5-007” value was “the same as shown for 191-D5-007 and 197-B2-006”. On to “CCCGGGUUAGGGCUAGAAGUCGGCGGG (chemistry not fully specified) [191-D5-029]”, for which the “binding affinity in competitive pull-down binding assay vs. 191-D5-007” value is recorded as “reduced binding affinity”.

Still in this data set, the particulars now being: reference 193-G2-001.
In the case of “GCGAGGUGUGAUCUAGAUGUAGUGGCUGAUCCUAGUCAGGUGCGC (chemistry not fully specified) [193-G1-002]”, the “binding to human SDF-1 in comparison to 193-G2-001” value (from here on “binding … to 193-G2-001”) is reported as “reduced binding; also recorded: weaker binding affinities”. For the substance “GCGUGGUGUGAUCUAGAUGUAGUGGCUGAUCCUAGUUAGGUACGC (chemistry not fully specified) [193-D1-002]”, the “binding … to 193-G2-001” value is reported as “reduced binding”. “GCGUGGUGUGAUCUAGAUGUAGUGGCUGAUCCUAGUCAGGUGCGC (chemistry not fully specified) [193-D2-002]”: the “binding … to 193-G2-001” value is “reduced binding; also recorded: weaker binding affinities”. On to “GCGUGGUGUGAUCUAGAUGUAGAGGCUGAUCCUAGUCAGGUACGC (chemistry not fully specified) [193-B3-002]”, for which the “binding … to 193-G2-001” value is “reduced binding”.

Staying with this data set, now noted: vs. 192-A10-001 and 192-A10-008.
In the case of “CGUGAAAGCAACAUGUCAAUGAAAGGUAGCCGCG (aptamer; chemistry not given here) [192-A10-016]”, the “binding affinity of derivatives of 192-A10-001 in competitive pull-down binding assay” value was “weaker, much weaker or very much weaker binding affinity”. On the same count and under the same terms, next, “UGUGAAAGCAACAUGUCAAUGAAAGGUAGCCGCA (aptamer; chemistry not given here) [192-A10-003]”: “reduced binding affinity”; “GCGCAAAGCAACAUGUCAAUGAAAGGUAGCGUGC (aptamer; chemistry not given here) [192-A10-017]”: “weaker, much weaker or very much weaker binding affinity”. As to “CGCGAAAGCAACAUGUCAAUGAAAGGUAGCCGUG (aptamer; chemistry not given here) [192-A10-019]”, the “binding affinity of derivatives of 192-A10-001 in competitive pull-down binding assay” value is “weaker, much weaker or very much weaker binding affinity”. “GAAAGCAACAUGUCAAUGAAAGGUAGCC (chemistry not fully specified) [192-A10-006]”: the “binding affinity of derivatives of 192-A10-001 in competitive pull-down binding assay” value was “reduced binding affinity”. On the same count and under the same terms, the result for “GUGCAAAGCAACAUGUCAAUGAAAGGUAGCGCGC (aptamer; chemistry not given here) [192-A10-018]” reads “weaker, much weaker or very much weaker binding affinity”. Consider “AAAGCAACAUGUCAAUGAAAGGUAGC (chemistry not fully specified) [192-A10-007]”, for which the “binding affinity of derivatives of 192-A10-001 in competitive pull-down binding assay” value was “reduced binding affinity”.

As for “GCGCGAAAGCAACAUGUCAAUGAAAGGUAGCCGCGC (aptamer; Made as D-RNA aptamer and L-RNA Spiegelmer, tested form not given here, further chemistry not given here) [192-A10-015]”, the “binding affinity of derivatives of 192-A10-001 in competitive pull-down binding assay” value is “reduced binding affinity; also recorded: weaker, much weaker or very much weaker binding affinity”. For the substance “CCCCAAAGCAACAUGUCAAUGAAAGGUAGCGGGG (aptamer; chemistry not given here) [192-A10-023]”, the “binding affinity of derivatives of 192-A10-001 in competitive pull-down binding assay” value was “weaker, much weaker or very much weaker binding affinity”.

The same data set, now with this note: vs. 193-G2-001 and 193-G2-012.
As for “CGUGGUGUGAUCUAGAUGUAGUGGCUGAUCCUAGUCAGGUACG (chemistry not fully specified) [193-C2-003]”, the “binding affinity of derivatives of 193-G2-001 and 193-C2-001 in competitive pull-down binding assay” value was “reduced binding affinity”. Take “GGUGUGAUCUAGAUGUAGUGGCUGAUCCUAGUCAGGU (Listed both as L-RNA Spiegelmer and D-RNA aptamer, further chemistry not given here) [193-C2-006]”: the “binding affinity of derivatives of 193-G2-001 and 193-C2-001 in competitive pull-down binding assay” value was “reduced binding affinity”. Consider “GCCCGUGUGAUCUAGAUGUAUUGGCUGAUCCUAGUCAGGGGGC (chemistry not fully specified) [193-G2-017]”, for which the “binding affinity of derivatives of 193-G2-001 and 193-C2-001 in competitive pull-down binding assay” value is listed as “reduced binding affinity”.

As to “GCGCGUGUGAUCUAGAUGUAUUGGCUGAUCCUAGUCAGGGCGC (chemistry not fully specified) [193-G2-014]”, the “binding affinity of derivatives of 193-G2-001 and 193-C2-001 in competitive pull-down binding assay” value was “reduced binding affinity”. Consider “GGGCGUGUGAUCUAGAUGUAUUGGCUGAUCCUAGUCAGGGCCC (chemistry not fully specified) [193-G2-015]”, for which the “binding affinity of derivatives of 193-G2-001 and 193-C2-001 in competitive pull-down binding assay” value was “reduced binding affinity”.
